Laboratory results: ChEMBL document CHEMBL1201862, “PubChem BioAssay data set” (2004)
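1) Cells in 96-well plates. 2) Compound, 48 h, 5 concentrations. 3) Linear interpolation between surrounding doses. 4) Unreached endpoint = highest concentration. Abbreviation: GI50, concentration required for 50% inhibition of growth.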 Activity calls are given as the source filed them. No stated cut-off is given here; in the data, active = GI50 up to about 1.1 µM and inactive = higher.

Columns and labels:
Assay in all cases: DTP human tumour cell line panel, 48 h
NCI-H460 = tested on: NCI-H460
SK-MEL-2 = tested on: SK-MEL-2
UO-31 = tested on: UO-31
SF-539 = tested on: SF-539
HT-29 = tested on: HT-29
RXF 393 = tested on: RXF 393
SK-MEL-5 = tested on: SK-MEL-5
A498 = tested on: A498
OVCAR-3 = tested on: OVCAR-3
HCT-15 = tested on: HCT-15
MOLT-4 = tested on: MOLT-4
COLO 205 = tested on: COLO 205
SN12C = tested on: SN12C
SK-MEL-28 = tested on: SK-MEL-28
SNB-75 = tested on: SNB-75
IGROV-1 = tested on: IGROV-1
Malme-3M = tested on: Malme-3M
TK-10 = tested on: TK-10

Compound | GI50 (NCI-H460) | GI50 (SK-MEL-2) | GI50 (UO-31) | GI50 (SF-539) | GI50 (HT-29) | GI50 (RXF 393) | GI50 (SK-MEL-5) | GI50 (A498) | GI50 (OVCAR-3) | GI50 (HCT-15) | GI50 (MOLT-4) | GI50 (COLO 205) | GI50 (SN12C) | GI50 (SK-MEL-28) | GI50 (SNB-75) | GI50 (IGROV-1) | GI50 (Malme-3M) | GI50 (TK-10)
O=C1C=C2SC3C[C@@]24CC1(O)[N+]1=c2c4c(c(O)c4c2=C(C=N4)CC1)N3 | 2.07 µM (inactive) | 1.44 µM (inactive) | 1.89 µM (inactive) | 1.51 µM (inactive) | 0.299 µM (active) | 1.35 µM (inactive) | 1.5 µM (inactive) | 1.88 µM (inactive) | 0.206 µM (active) | 1.64 µM | 0.268 µM (active) | 0.176 µM (active) | 1.22 µM (inactive) | 1.64 µM (inactive) | 1.83 µM (inactive) | 1.57 µM (inactive) | – | –
CC(C)(C)c1cc(C2c3cc4c(cc3OC(O)(CO)C2C(=O)O)OCO4)cc(C(C)(C)C)c1O.CC(C)(C)c1cc(C2c3cc4c(cc3OC3(O)COC(=O)C23)OCO4)cc(C(C)(C)C)c1O (stereo not drawn) | 14.7 µM (inactive) | – | 13.6 µM (inactive) | 12.5 µM (inactive) | 13.5 µM (inactive) | 11.9 µM (inactive) | 9.48 µM (inactive) | – | 5.36 µM (inactive) | 8.2 µM | 3.52 µM (inactive) | 20.4 µM (inactive) | 9.04 µM (inactive) | 11.3 µM (inactive) | 10.1 µM (inactive) | 16.4 µM (inactive) | 16.6 µM (inactive) | 22.7 µM (inactive)
CCCCCNC(=O)CCCCCCCCCCCNC(=O)CCCCCCCCCCN1C=CC(=CC=C2C=CC(=O)C=C2)C=C1 | > 100 µM (inactive) | – | > 100 µM (inactive) | 30.3 µM (inactive) | 54.6 µM (inactive) | > 100 µM (inactive) | 35.2 µM (inactive) | > 100 µM (inactive) | 41.3 µM (inactive) | > 100 µM | 29 µM (inactive) | 15.3 µM (inactive) | 39.4 µM (inactive) | > 100 µM (inactive) | 19.4 µM (inactive) | 28.4 µM (inactive) | 34.9 µM (inactive) | > 10 µM (inactive)
O=C(Nc1ccc([N+](=O)[O-])cc1C(=O)O)c1ccc([N+](=O)[O-])cc1 | 21 µM (inactive) | 19.2 µM (inactive) | 34.3 µM (inactive) | 9.95 µM (inactive) | 29 µM (inactive) | – | 51.3 µM (inactive) | 71.9 µM (inactive) | 59.6 µM (inactive) | 20.8 µM | 14.8 µM (inactive) | > 10 µM (inactive) | 41.4 µM (inactive) | 31.1 µM (inactive) | > 100 µM (inactive) | 29.2 µM (inactive) | 32.4 µM (inactive) | 70.3 µM (inactive)
CC1CCCc2c(CC3CC(=O)NC(=O)C3)n[nH]c21 (stereo not drawn) | > 100 µM (inactive) | – | > 100 µM (inactive) | > 100 µM (inactive) | > 100 µM (inactive) | > 100 µM (inactive) | – | > 100 µM (inactive) | > 100 µM (inactive) | > 100 µM | > 100 µM (inactive) | > 100 µM (inactive) | > 100 µM (inactive) | > 100 µM (inactive) | > 100 µM (inactive) | > 100 µM (inactive) | > 100 µM (inactive) | > 100 µM (inactive)
Cc1ccccc1NC(=O)c1ccc([N+](=O)[O-])cc1 | > 100 µM (inactive) | – | > 100 µM (inactive) | > 100 µM (inactive) | 51.1 µM (inactive) | 15.8 µM (inactive) | 84.9 µM (inactive) | > 100 µM (inactive) | 53.5 µM (inactive) | 66.2 µM | > 100 µM (inactive) | > 100 µM (inactive) | > 100 µM (inactive) | > 100 µM (inactive) | > 100 µM (inactive) | > 100 µM (inactive) | > 100 µM (inactive) | 97.3 µM (inactive)
Cn1c2c(c3ccccc31)CCN(CCCN1CCN(c3ccccc3)CC1)C2=O | – | – | 14.7 µM (inactive) | 17.6 µM (inactive) | 13.8 µM (inactive) | 15.8 µM (inactive) | 18.9 µM (inactive) | 18.5 µM (inactive) | – | 19.1 µM | 13.3 µM (inactive) | 17.6 µM (inactive) | 20.6 µM (inactive) | 18.1 µM (inactive) | – | 20.8 µM (inactive) | – | 16.9 µM (inactive)
O=[PH](O)c1cc2ccccc2c2ccccc12 | > 100 µM (inactive) | – | – | > 100 µM (inactive) | > 100 µM (inactive) | > 100 µM (inactive) | > 100 µM (inactive) | – | > 100 µM (inactive) | – | > 100 µM (inactive) | > 100 µM (inactive) | > 100 µM (inactive) | > 100 µM (inactive) | > 100 µM (inactive) | > 100 µM (inactive) | – | > 100 µM (inactive)
CCN(CC)CC1CCCCN1CC(=O)N1CC(C)C(=O)Nc2ccccc21 (stereo not drawn) | > 100 µM (inactive) | – | > 100 µM (inactive) | – | > 100 µM (inactive) | – | > 100 µM (inactive) | > 100 µM (inactive) | > 100 µM (inactive) | > 100 µM | > 100 µM (inactive) | > 100 µM (inactive) | > 100 µM (inactive) | > 100 µM (inactive) | – | > 100 µM (inactive) | > 100 µM (inactive) | –
[N-]=[N+]=NC1(Cc2ccccc2)C(=O)Nc2ccccc2C1=O (stereo not drawn) | > 100 µM (inactive) | > 100 µM (inactive) | 39.6 µM (inactive) | > 100 µM (inactive) | > 100 µM (inactive) | – | > 100 µM (inactive) | > 100 µM (inactive) | 91.6 µM (inactive) | > 100 µM | > 100 µM (inactive) | > 100 µM (inactive) | > 100 µM (inactive) | > 100 µM (inactive) | > 100 µM (inactive) | 88.7 µM (inactive) | > 100 µM (inactive) | > 100 µM (inactive)
O=C(c1ccco1)N(C(=S)N1CCN(c2ccccc2)CC1)C1CCCCC1 | 76 µM (inactive) | > 100 µM (inactive) | 33.3 µM (inactive) | > 100 µM (inactive) | 63.5 µM (inactive) | 52.6 µM (inactive) | 56.4 µM (inactive) | – | > 100 µM (inactive) | 94.6 µM | > 100 µM (inactive) | 45 µM (inactive) | > 100 µM (inactive) | > 10 µM (inactive) | 50.5 µM (inactive) | > 100 µM (inactive) | > 100 µM (inactive) | > 100 µM (inactive)
C=C1C2CC(OC(C)=O)C3(C)C(c4ccoc4)OC(=O)[C@@H](O)[C@]13OC1C[C@H](OC(C)=O)C(C)(C)[C@H](CC(=O)OC)[C@]12C (stereo partly drawn) | > 100 µM (inactive) | > 100 µM (inactive) | > 100 µM (inactive) | > 100 µM (inactive) | > 100 µM (inactive) | – | > 100 µM (inactive) | > 100 µM (inactive) | > 100 µM (inactive) | > 100 µM | 70.6 µM (inactive) | > 100 µM (inactive) | > 100 µM (inactive) | > 100 µM (inactive) | 33.6 µM (inactive) | > 100 µM (inactive) | – | > 100 µM (inactive)
O=[N+]([O-])c1ccc(CNC2=NNS(=O)(=O)c3ccccc32)cc1 | > 100 µM (inactive) | > 100 µM (inactive) | > 100 µM (inactive) | > 100 µM (inactive) | > 100 µM (inactive) | > 100 µM (inactive) | > 100 µM (inactive) | 32.1 µM (inactive) | > 100 µM (inactive) | 75.5 µM | 22.3 µM (inactive) | > 100 µM (inactive) | > 100 µM (inactive) | – | – | > 100 µM (inactive) | > 100 µM (inactive) | –
